Laboratory results taken from patent US8680253B2 (OliPass Corporation, priority 2008, dated 2014).
Several values for one entry are separate records, joined by “and”; a condition that tells them apart may be missing. Equal values may be shown once. {Fam-L(2)} = N-terminal fluorescein (Fam) label attached through linker L(2); {L(1)} = linker L(1) as defined below the publication's; {Fam} = fluorescein (FAM) label at the N-terminus; {Lys-NH2} = C-terminal lysine amide

Tests used:
complementary DNA = assay: Binding affinity for DNA: Tm between PNA and complementary DNA (UV absorbance at 260 nm); conditions: 4 μM PNA oligomer and 4 μM DNA, aq buffer pH 7.16, 10 mM sodium phosphate, 100 mM NaCl
Method: (§1) PNA oligomers of this invention were evaluated for their binding affinity for DNA by measuring Tm values as follows.
(§2) 4 μM PNA oligomer and 4 μM DNA were mixed in aq buffer (pH 7.16, 10 mM sodium phosphate, 100 mM NaCl), and incubated at 90° C. for a few minutes and slowly cooled down to RT. Then the solution was transferred into a 4 ml quartz cuvette and the cuvette was tightly sealed. The cuvette was mounted on an Agilent 8453 UV/Visible spectrophotometer and absorbance changes at 260 nm were recorded with increasing the temperature of the cuvette by either 0.5 or 1.0° C. per minute. From the absorbance vs temperature curve, the temperature showing the largest increase rate in absorbance was read out as the melting temperature Tm between PNA and DNA. DNAs for Tm measurement were purchased either from Bioneer, Inc. (www.bioneer.com, Daejon, South Korea) or from Ahram Biosystems (www.ahrambio.com, Seoul, South Korea), and used without further purification.
(§3) FIG. 3 provides graphs of absorbance changes with temperature for Oligo 17 against complementary or mismatch DNA. For sequences of the mismatch DNAs against Oligo 17, refer to Table 2. In FIG. 3, there is a transition temperature in each curve, which was read out as the Tm value for the curve.
(§4) Tm values are provided in Table 2 for PNA oligomers of this invention. These Tm values are presented for illustrative purposes only and should not be interpreted as a restriction to this invention.

mismatch DNA = assay: Binding affinity for DNA: Tm between PNA and mismatch DNA (UV absorbance at 260 nm); conditions: for decreases in Tm with single base mismatches: single base mismatch versus complementary DNA
Method: as §1, §2, §3, §4

HeLa cells = assay: Cell penetration of fluorescein-tagged PNA oligomers, confocal fluorescence microscopy; assay type: cell-based, human
Method: (§5) In order to evaluate the cell penetration ability of PNA oligomers of this invention, cancer cells of human origin were treated with PNA oligomers covalently tagged with fluorescein. The applied method is provided in brief as follows.
(§6) To each cover glass (autoclaved) placed in each well of a 24-well plate, were seeded 20,000˜100,000 cells depending on the growth rate of the cell line used, and the cells were cultured at 37° C. and 5% CO2 for 16 to 24 h. Then the medium was replaced with 500 μl fresh Opti-MEM medium (with or without 1% FBS), to which was added an aliquot of aq stock solution of a PNA oligomer covalently tagged with fluorescein. After cells were cultured for a designated interval, the cells were washed with PBS, and fixed by incubating in 3.7% or 4% paraformaldehyde. The cells were thoroughly washed several times with PBS or PBS containing 0.1% Tween-20. Then the cover glass was mounted onto a slide glass using a drop of mounting solution and sealed with nail polish for confocal fluorescence microscopy. Fluorescence images were taken either on a Zeiss LSM 510 confocal microscope (Germany) at 63× objective or on a Nikon C1Si confocal microscope at 40× objective.

JAR cells = assay: as above; assay type: cell-based, human; conditions: 2 μM, 24 h, without FBS, 40× objective
Method: as §5, §6

A549 cells = assay: as above; assay type: cell-based, human; conditions: 2 μM, 24 h, without FBS, 40× objective
Method: as §5, §6

mdm2 = assay: Antisense example: inhibition of ribosomal synthesis of mdm2 in JAR cells, western blotting; assay type: cell-based, human; conditions: 15 h
Method: The following antisense example is presented for illustrative purposes only and should not be interpreted as a restriction to the present invention.
JAR cells (ATCC catalog #HTB-144) were grown in RPMI-1640 medium supplemented with 10% FBS and 1% penicillin-streptomycin at 37° C. and 5% CO2. Cells were then seeded into each well of a 12-well plate containing 1 ml of the same medium, and treated with an aliquot of an aqueous stock solution of Oligo 9 or […] of a designated concentration. Then the cells were incubated at 37° C. and 5% CO2 for 15 h.
The cells in each well were washed with cold PBS and treated with 80 μl RIPA buffer containing 1% protease inhibitors cocktail, and the plate was incubated at 4° C. and agitated slowly for 15 min. The content of each well was scraped out into a microtube. The microtube was incubated in ice for 10 min and centrifuged at 10,000 g. The resulting supernatant was collected and subjected to protein quantification by Bradford assay and western blot analysis. For electrophoresis, 20 μg of protein was loaded onto each lane of the gel in a minigel apparatus, separated and transferred onto a PVDF membrane (0.45μ, Millipore). The primary mdm2 antibody used for western blotting was SC-965 (Santa Cruz Biotechnology).
FIG. 9 provides western blotting results for JAR cells treated with 5 μM or 10 μM Oligo 9, 5 μM or 10 μM Oligo 10, cotreatment with the oligomers at 5 μM or 10 μM each, and blank (no oligomer treatment).

[1] = 5 μM, 1, 2, 3 and 24 h, without FBS, 63× objective
[2] = 2 μM, 12 h, without FBS, 40× objective

CA(2O2)T-A(2O2)GT-A(2O2)TA-A(2O2)GT-NH2 (CATAGTATAAGT; chemistry not fully specified) [Oligo 18, modified PNA oligomer]
Tm between PNA and complementary DNA (complementary DNA): 66 °C

CA(3)T-A(3)GT-A(3)TA-A(3)GT-NH2 (CATAGTATAAGT; chemistry not fully specified) [Oligo 12]
Tm between PNA and complementary DNA (complementary DNA): 60 °C

CA(4)T-A(4)GT-A(4)TA-A(4)GT-NH2 (CATAGTATAAGT; PNA-like chain with modified monomers A(5)/A(4), C-terminal amide, codes undefined, further chemistry not given here) [Oligo 13, modified PNA oligomer]
Tm between PNA and complementary DNA (complementary DNA): 64 °C

CA(5)T-A(5)GT-A(5)TA-A(5)GT-Lys-NH2 (CATAGTATAAGT; modified PNA, C-terminal Lys-NH2, chemistry not fully specified) [Oligo 17, modified PNA oligomer]
Tm between PNA and mismatch DNA (mismatch DNA; mismatch (T → A), DNA ACT-TAA-ACT-ATG): 59 °C
Tm between PNA and mismatch DNA (mismatch DNA; mismatch (T → C), DNA ACT-TAC-ACT-ATG): 61 °C
Tm between PNA and mismatch DNA (mismatch DNA; mismatch (T → G), DNA ACT-TAG-ACT-ATG): 58 °C
decreases in Tm with single base mismatches (mismatch DNA): 11˜14 °C
Tm between PNA and complementary DNA (complementary DNA): 72 °C

CA(5)T-A(5)GT-A(5)TA-A(5)GT-NH2 (CATAGTATAAGT; chemistry not fully specified) [Oligo 14, modified PNA oligomer]
Tm between PNA and complementary DNA (complementary DNA): 69 °C

CA(7)T-A(7)GT-A(7)TA-A(7)GT-NH2 (CATAGTATAAGT; chemistry not fully specified) [Oligo 15, modified PNA oligomer]
Tm between PNA and complementary DNA (complementary DNA): 71 °C

CAT-AGT-ATA-AGT-Lys-NH2 (CATAGTATAAGT; all peptide nucleic acid (PNA), 3' {Lys-NH2}) [Oligo 16, unmodified PNA oligomer, reference compound]
Tm between PNA and complementary DNA (complementary DNA): 56 °C

CAT-AGT-ATA-AGT-NH2 (CATAGTATAAGT; chemistry not fully specified) [Oligo 27, unmodified PNA oligomer, reference compound]
Tm between PNA and complementary DNA (complementary DNA): 55 °C

Fam-L(1)L(1)-TGC(1O3)-TAC(1O3)-TAC(1O3)-TG-Lys-NH2 (TGCTACTACTG; Fam-L(1)L(1) N-term, Lys-NH2, modified PNA, chemistry not fully specified) [Oligo 1, fluorescein-tagged modified PNA oligomer]
cell penetration, fluorescence intensity (HeLa cells; 1 μM, 6 or 24 h, with 1% FBS, 40× objective): fluorescence intensity is faint even at 24 h
cell penetration, fluorescence intensity (HeLa cells; [1]): fluorescence intensity is clear and becomes intense over 24 h

Fam-L(1)L(1)-TGC-TAC-TAC-TG-Lys-NH2 (TGCTACTACTG; all peptide nucleic acid (PNA), 5' {Fam}-{L(1)}-{L(1)}, 3' {Lys-NH2}) [Oligo 2, fluorescein-tagged 'unmodified' PNA oligomer, reference compound]
cell penetration, fluorescence intensity (HeLa cells; [1]): fluorescence intensity is faint

Fam-L(2)-CA(5)T-A(4g)GT-A(4g)TA(5)-AGT-Lys-NH2 (CATAGTATAAGT; Fam-L(2) label, modified PNA, Lys-NH2, chemistry not fully specified) [Oligo 24, fluorescein-tagged modified PNA oligomer]
Tm between PNA and complementary DNA (complementary DNA): 70 °C

Fam-L(2)-TG(5)G-C(1O2)AA-C(1O2)TG-A(5)T-Lys-NH2 (TGGCAACTGAT; Fam-L(2) label, modified PNA, Lys-NH2, chemistry not fully specified) [Oligo 21, fluorescein-tagged modified PNA oligomer]
cell penetration, fluorescence intensity (HeLa cells; [2]): fluorescence intensity is apparent
cell penetration, fluorescence intensity (HeLa cells; 2 μM, 24 h, without FBS, 40× objective): significantly stronger than that in FIG. 7(e)
cell penetration, fluorescence intensity (JAR cells): fluorescence intensity is strong
cell penetration, fluorescence intensity (A549 cells): fluorescence intensity is strong

Fam-L(2)-TGG-CAA-CTG-AT-Lys-NH2 (TGGCAACTGAT; all peptide nucleic acid (PNA), 5' {Fam-L(2)}, 3' {Lys-NH2}) [Oligo 28, fluorescein-tagged 'unmodified' PNA oligomer, reference compound]
cell penetration, fluorescence intensity (HeLa cells; [2]): no significant fluorescence intensity
cell penetration, fluorescence intensity (JAR cells): no significant fluorescence intensity
cell penetration, fluorescence intensity (A549 cells): no significant fluorescence intensity

GC(1O2)A-C(1O2)AT-TTG-C(1O2)CT-NH2 (GCACATTTGCCT; chemistry not fully specified) [Oligo 10, modified PNA oligomer]
inhibition of ribosomal synthesis of mdm2 (mdm2; 5 μM): significantly inhibited
inhibition of ribosomal synthesis of mdm2 (mdm2; 10 μM): significantly inhibited

GC(2O2)A-C(2O2)AT-TTG-C(2O2)CT-NH2 (GCACATTTGCCT; chemistry not fully specified) [Oligo 9]
inhibition of ribosomal synthesis of mdm2 (mdm2; 5 μM): significantly inhibited
inhibition of ribosomal synthesis of mdm2 (mdm2; 10 μM): significantly inhibited

GCA-CAT-TTG-CCT-Lys-NH2 (GCACATTTGCCT; all peptide nucleic acid (PNA), 3' {Lys-NH2}) [Oligo 11, unmodified PNA oligomer, reference compound]
Tm between PNA and complementary DNA (complementary DNA): 58 °C and 59 °C

TG(5)G-C(1O2)AA-C(1O2)TG-A(5)T-Lys-NH2 (TGGCAACTGAT; modified PNA, C-terminal Lys-NH2, chemistry not fully specified) [Oligo 20, modified PNA oligomer]
Tm between PNA and mismatch DNA (mismatch DNA; mismatch (G → A), DNA ATC-AAT-TGC-CA): 65 °C
Tm between PNA and mismatch DNA (mismatch DNA; mismatch (G → T), DNA ATC-ATT-TGC-CA): 62 °C
decreases in Tm with single base mismatches (mismatch DNA): 19˜22 °C
Tm between PNA and complementary DNA (complementary DNA): 84 °C

TGC(1O3)-TAC-TAC(1O3)-TG-Lys-NH2 (TGCTACTACTG; modified PNA, C-terminal Lys-NH2, chemistry not fully specified) [Oligo 3, modified PNA oligomer]
Tm between PNA and complementary DNA (complementary DNA): 65 °C

TGC(2O2)-TAC-TAC(2O2)-TG-Lys-NH2 (TGCTACTACTG; modified PNA, monomer codes such as C(1O3), A(5) undefined, C-terminal Lys-NH2, further chemistry not given here) [Oligo 8, modified PNA oligomer]
Tm between PNA and complementary DNA (complementary DNA): 68 °C

TGC-TAC(1O3)-TAC-TG-Lys-NH2 (TGCTACTACTG; modified PNA, monomer codes such as C(1O3), A(5) undefined, C-terminal Lys-NH2, further chemistry not given here) [Oligo 4, modified PNA oligomer]
Tm between PNA and complementary DNA (complementary DNA): 61 °C

TGC-TAC-TAC-TG-Lys-NH2 (TGCTACTACTG; all peptide nucleic acid (PNA), 3' {Lys-NH2}) [Oligo 5, unmodified PNA oligomer, reference compound]
Tm between PNA and complementary DNA (complementary DNA): 55 °C
